The structures appear in SMILES notation. The source made the active and inactive calls. The rule behind the calls is not given here.

As a reminder, the IC50 is the midpoint of a concentration-inhibition curve.

In test [1] the test system is HEK-293T. The test is described as follows: Cytoprotective activity against CdCl2-induced cell death in human HEK293T cells at 25 to 100 uM preincubated for 2 hrs followed by CdCl2 treatment and measured after 12 hrs by MTT assay. The test is classed as functional, cell-based. Background: Tetrazolium dyes change colour on reduction, which living cells bring about.
Test [2] deals with HEK-293T. The test is described as follows: Cytoprotective activity against CdCl2-induced cell death in human HEK293T cells assessed as increase in cell viability preincubated for 2 hrs followed by CdCl2 treatment and measured after 48 hrs by MTT assay. The test is classed as functional, cell-based.

On to `CC1=CC(=O)CC(C)(C)[C@@]1(O)/C=C/[C@@H](C)O[C@@H]1O[C@H](CO)[C@@H](O)[C@H](O)[C@H]1O` [6S,9R-ROSEOSIDE], for which the result in the test with HEK-293T [1] was Active. For the same molecule, the IC50 with HEK-293T [2] was found to be 55.7 µM.
On to `CC1=CC(=O)CC(C)(C)[C@@]1(O)/C=C/[C@@H](C)O[C@@H]1O[C@H](CO)[C@@H](O)[C@H](OS(=O)(=O)O)[C@H]1O`, for which the result with HEK-293T [1] was Active.
Same read-out and setting: with `C[C@H](CCc1ccc(O)cc1)O[C@@H]1O[C@H](CO)[C@@H](O)[C@H](OS(=O)(=O)O)[C@H]1O` the entry was “Active”.
Regarding `OC[C@H]1O[C@@H](OCc2ccccc2)[C@H](O)[C@@H](O)[C@@H]1O`, the result in the test with HEK-293T [1] was Active. In addition, the IC50 with HEK-293T [2] turned out to be 80.3 µM.
Turning to `C[C@H](/C=C/[C@@]1(O)[C@H](C)CC(=O)CC1(C)C)O[C@@H]1O[C@H](CO)[C@@H](O)[C@H](OS(=O)(=O)O)[C@H]1O`, the result in the test on HEK-293T [1] was Active.
Same read-out and setting: with `COc1cc(-c2oc3cc(O)cc(O)c3c(=O)c2O[C@@H]2O[C@H](CO[C@@H]3O[C@@H](C)[C@H](O)[C@@H](O)[C@H]3O)[C@@H](O)[C@H](O)[C@H]2O)ccc1O` the entry was “Active”.
For the molecule `O=c1c(O[C@@H]2O[C@H](CO)[C@@H](O)[C@H](O)[C@H]2O)c(-c2ccc(O)c(O)c2)oc2cc(O)cc(O)c12`, the outcome in the test on HEK-293T [1] was Active.
Same read-out and setting: to `C[C@@H]1O[C@@H](OC[C@H]2O[C@@H](Oc3c(-c4ccc(O)c(O)c4)oc4cc(O)cc(O)c4c3=O)[C@H](O)[C@@H](O)[C@@H]2O)[C@H](O)[C@H](O)[C@H]1O` belongs “Active”.

These data come from ChEMBL document CHEMBL4414610, “Constituents from the Leaves of Tetraena mongolica and Their Protective Activity in HEK 293t Cells Damaged by CdCl2” (J Nat Prod, 2019).
